Source: patent publication US10568884B2, “Compounds and compositions as protein kinase inhibitors” (Array BioPharma, Inc., priority 2009, dated 2020)

system: not listed separately; experiment: Liver Microsomal Clearance Assay (human); format: in vitro ADME; conditions: extraction ratio, human liver microsomes, 1 μM compound
Procedure: (§1) The in vitro microsomal clearance assay is designed to assess potential risks associated with hepatic metabolic stability of compounds. The test compound (1 μM) was incubated with liver microsomes (0.5 mg/mL) from different species (mouse, rat, monkey, dog and human) and NADPH (1 mM) in 100 mM potassium phosphate buffer at 37° C. At specific reaction time points (0, 5, 10 and 30 minutes), reaction aliquots were removed and reactions were terminated by addition of ice cold acetonitrile containing mass spectrometry internal standard. The samples were centrifuged and the supernatants were analyzed by LC-MS/MS. In vitro metabolic half-life (t1/2, min) and intrinsic clearance (CLint, μL/min/mg) are based on the rate and extent of metabolism of the test compound as determined by the disappearance of the parent compound from the reaction mixture. These values may be scaled to predict hepatic metabolic clearance rate (CLh, mL/min/kg) and extraction ratio (ER, expressed as a ratio of the predicted hepatic metabolic clearance to hepatic blood flow in that species). In general, compounds with high predictedCLint or ER in vitro are considered to be at high risk for exposure-limiting metabolism in vivo.

ER Human	Structure (SMILES)
0.66	CCCS(=O)(=O)Nc1cc(Cl)cc(-c2nn(C(C)C)cc2-c2ccnc(NC[C@H](C)NC(=O)OC)n2)c1F [Compound 1, Methyl N-[(2S)-1-[(4-{3-[5-chloro-2-fluoro-3-(propane-1-sulfonamido)phenyl]-1-(propan-2-yl)-1H-pyrazol-4-yl]pyrimidin-2-yl)amino]propan-2-yl]carbamate]
0.69	CCCS(=O)(=O)Nc1cccc(-c2nn(C(C)C)cc2-c2ccnc(NC[C@H](C)NC(=O)OC)n2)c1F [Compound 3, methyl N-[(2S)-1-[(4-{3-[2-fluoro-3-(propane-1-sulfonamido)phenyl]-1-(propan-2-yl)-1H-pyrazol-4-yl}pyrimidin-2-yl)amino]propan-2-yl]carbamate]
0.69	COC(=O)N[C@@H](C)CNc1nccc(-c2cn(C(C)C)nc2-c2c(F)ccc(NS(C)(=O)=O)c2F)n1 [Compound 6, methyl N-[(2S)-1-({4-[3-(2,6-difluoro-3-methanesulfonamidophenyl)-1-(propan-2-yl)-1H-pyrazol-4-yl]pyrimidin-2-yl]amino)propan-2-yl]carbamate]

system: not listed separately; experiment: Liver Microsomal Clearance Assay (mouse); format: in vitro ADME; conditions: extraction ratio, mouse liver microsomes, 1 μM compound
Procedure: as §1

ER Mouse	Structure (SMILES)
0.79	CCCS(=O)(=O)Nc1cc(Cl)cc(-c2nn(C(C)C)cc2-c2ccnc(NC[C@H](C)NC(=O)OC)n2)c1F [Compound 1, Methyl N-[(2S)-1-[(4-{3-[5-chloro-2-fluoro-3-(propane-1-sulfonamido)phenyl]-1-(propan-2-yl)-1H-pyrazol-4-yl]pyrimidin-2-yl)amino]propan-2-yl]carbamate]
0.85	CCCS(=O)(=O)Nc1cccc(-c2nn(C(C)C)cc2-c2ccnc(NC[C@H](C)NC(=O)OC)n2)c1F [Compound 3, methyl N-[(2S)-1-[(4-{3-[2-fluoro-3-(propane-1-sulfonamido)phenyl]-1-(propan-2-yl)-1H-pyrazol-4-yl}pyrimidin-2-yl)amino]propan-2-yl]carbamate]

system: A375 melanoma cell line (B-Raf V600E); experiment: A375 Cellular Proliferation Assay (A375 CP); format: cell-based; conditions: Homo sapiens, A-375, 48 h; A375-luc cells, 2 days; read-out: A375 CP IC50
Procedure: A375-luc cells engineered to express luciferase are plated to 384-well white clear bottom plates as 1,500 cells/50 μl/well in DMEM containing 10% FBS. Compounds of the invention dissolved in 100% DMSO at appropriate concentrations are transferred to the cells by a robotic Pin Tool (100 nl). The cells are incubated for 2 days at […], then 25 μl of BrightGlo™ is added to each well and the plates are read by luminescence.

IC50 [nM]	Structure (SMILES)
2	CCCS(=O)(=O)Nc1cc(Cl)cc(-c2nn(C(C)C)cc2-c2ccnc(NC[C@H](C)NC(=O)OC)n2)c1F [Compound 1, Methyl N-[(2S)-1-[(4-{3-[5-chloro-2-fluoro-3-(propane-1-sulfonamido)phenyl]-1-(propan-2-yl)-1H-pyrazol-4-yl]pyrimidin-2-yl)amino]propan-2-yl]carbamate]
18	COC(=O)N[C@@H](C)CNc1nccc(-c2cn(C(C)C)nc2-c2cc(Cl)cc(NS(C)(=O)=O)c2)n1 [Compound 2, methyl N-[(2S)-1-({4-[3-(3-chloro-5-methanesulfonamidophenyl)-1-(propan-2-yl)-1H-pyrazol-4-yl]pyrimidin-2-yl}amino)propan-2-yl]carbamate]
2	CCCS(=O)(=O)Nc1cccc(-c2nn(C(C)C)cc2-c2ccnc(NC[C@H](C)NC(=O)OC)n2)c1F [Compound 3, methyl N-[(2S)-1-[(4-{3-[2-fluoro-3-(propane-1-sulfonamido)phenyl]-1-(propan-2-yl)-1H-pyrazol-4-yl}pyrimidin-2-yl)amino]propan-2-yl]carbamate]
1	CCCS(=O)(=O)Nc1cc(Cl)cc(-c2nn(C(C)C)cc2-c2ccnc(NC[C@H](C)NC(=O)OC)n2)c1 [Compound 5, methyl N-[(2S)-1-[(4-{3-[3-chloro-5-(propane-1-sulfonamido)phenyl]-1-(propan-2-yl)-1H-pyrazol-4-yl]pyrimidin-2-yl)amino]propan-2-yl]carbamate]
46	COC(=O)N[C@@H](C)CNc1nccc(-c2cn(C(C)C)nc2-c2c(F)ccc(NS(C)(=O)=O)c2F)n1 [Compound 6, methyl N-[(2S)-1-({4-[3-(2,6-difluoro-3-methanesulfonamidophenyl)-1-(propan-2-yl)-1H-pyrazol-4-yl]pyrimidin-2-yl]amino)propan-2-yl]carbamate]
27	COC(=O)N[C@@H](C)CNc1nccc(-c2cn(C(C)C)nc2-c2cccc(NS(=O)(=O)CCC(F)(F)F)c2F)n1 [Compound 8]
3	COC(=O)N[C@@H](C)CNc1nccc(-c2cn(C(C)C)nc2-c2cc(F)cc(NS(C)(=O)=O)c2F)n1 [Compound 10, methyl N-[(2S)-1-({4-[3-(2,5-difluoro-3-methanesulfonamidophenyl)-1-(propan-2-yl)-1H-pyrazol-4-yl]pyrimidin-2-yl]amino)propan-2-yl]carbamate]
3	CCn1cc(-c2ccnc(NC[C@H](C)NC(=O)OC)n2)c(-c2cc(Cl)cc(NS(C)(=O)=O)c2F)n1 [Compound 11, methyl N-[(2S)-1-({4-[3-(5-chloro-2-fluoro-3-methanesulfonamidophenyl)-1-ethyl-1H-pyrazol-4-yl]pyrimidin-2-yl}amino)propan-2-yl]carbamate]
4	COC(=O)N[C@@H](C)CNc1nccc(-c2cn(C(C)C)nc2-c2cc(C)cc(NS(C)(=O)=O)c2F)n1 [Compound 12, methyl N-[(2S)-1-({4-[3-(2-fluoro-3-methanesulfonamido-5-methylphenyl)-1-(propan-2-yl)-1H-pyrazol-4-yl]pyrimidin-2-yl]amino)propan-2-yl]carbamate]
79	COC(=O)N[C@@H](C)CNc1nccc(-c2cn(C(C)C)nc2-c2ccnc(NS(C)(=O)=O)c2Cl)n1 [Compound 14, methyl N-[(2S)-1-({4-[3-(3-chloro-2-methanesulfonamidopyridin-4-yl)-1-(propan-2-yl)-1H-pyrazol-4-yl]pyrimidin-2-yl}amino)propan-2-yl]carbamate]
4	COC(=O)N[C@@H](C)CNc1nccc(-c2cn(C(C)C)nc2-c2cc(F)cc(NS(C)(=O)=O)c2Cl)n1 [Compound 15, Methyl N-[(2S)-1-({4-[3-(2-chloro-5-fluoro-3-methanesulfonamidophenyl)-1-(propan-2-yl)-1H-pyrazol-4-yl]pyrimidin-2-yl}amino)propan-2-yl]carbamate]
1400	COC(=O)N[C@@H](C)CNc1nccc(-c2cn(C(C)C)nc2-c2ccnc(NS(C)(=O)=O)c2F)n1 [Compound 16, methyl N-[(2S)-1-({4-[3-(3-fluoro-2-methanesulfonamidopyridin-4-yl)-1-(propan-2-yl)-1H-pyrazol-4-yl]pyrimidin-2-yl}amino)propan-2-yl]carbamate]
2	CC(C)n1cc(-c2ccnc(NCCC#N)n2)c(-c2cc(Cl)cc(NS(C)(=O)=O)c2F)n1 [Compound 17, N-[5-chloro-3-(4-{2-[(2-cyanoethyl)amino]pyrimidin-4-yl}-1-(propan-2-yl)-1H-pyrazol-3-yl)-2-fluorophenyl]methanesulfonamide]
12	CCS(=O)(=O)Nc1c(F)c(F)cc(-c2nn(C(C)C)cc2-c2ccnc(NC[C@H](C)NC(=O)OC)n2)c1Cl [Compound 18, methyl N-[(2S)-1-({4-[3-(2-chloro-3-ethanesulfonamido-4,5-difluorophenyl)-1-(propan-2-yl)-1H-pyrazol-4-yl]pyrimidin-2-yl}amino)propan-2-yl]carbamate]
93	COC(=O)N[C@@H](C)CNc1nccc(-c2cn(C(C)C)nc2-c2ccc(F)c(NS(C)(=O)=O)c2F)n1 [Compound 19, methyl N-[(2S)-1-({4-[3-(2,4-difluoro-3-methanesulfonamidophenyl)-1-(propan-2-yl)-1H-pyrazol-4-yl]pyrimidin-2-yl}amino)propan-2-yl]carbamate]
7	COC(=O)N[C@H](C)CNc1nccc(-c2cn(C(C)C)nc2-c2cc(Cl)cc(NS(C)(=O)=O)c2F)n1 [Compound 20, methyl N-[(2R)-1-({4-[3-(5-chloro-2-fluoro-3-methanesulfonamidophenyl)-1-(propan-2-yl)-1H-pyrazol-4-yl]pyrimidin-2-yl}amino)propan-2-yl]carbamate]
45	COC(=O)N[C@@H](C)CNc1nccc(-c2cn(C(C)C)nc2-c2cc(F)c(F)c(NS(C)(=O)=O)c2F)n1 [Compound 21, methyl N-[(2S)-1-({4-[1-(propan-2-yl)-3-(2,4,5-trifluoro-3-methanesulfonamidophenyl)-1H-pyrazol-4-yl]pyrimidin-2-yl}amino)propan-2-yl]carbamate]
6	COC(=O)N[C@@H](C)CNc1nccc(-c2cn(C(C)C)nc2-c2cc(Cl)cc(NS(C)(=O)=O)c2Cl)n1 [Compound 22, methyl N-[(2S)-1-({4-[3-(2,5-dichloro-3-methanesulfonamidophenyl)-1-(propan-2-yl)-1H-pyrazol-4-yl]pyrimidin-2-yl}amino)propan-2-yl]carbamate]
1150	COC(=O)N[C@@H](C)CNc1nccc(-c2cn(C(C)C)nc2-c2cccc(NS(C)(=O)=O)c2)n1 [Compound 23, methyl N-[(2S)-1-({4-[3-(3-methanesulfonamidophenyl)-1-(propan-2-yl)-1H-pyrazol-4-yl]pyrimidin-2-yl}amino)propan-2-yl]carbamate]
2	COC(=O)N[C@@H](C)CNc1nccc(-c2cn(C(C)C)nc2-c2cc(Cl)cc(NS(=O)(=O)C3CC3)c2F)n1 [Compound 25, methyl N-[(2S)-1-({4-[3-(5-chloro-3-cyclopropanesulfonamido-2-fluorophenyl)-1-(propan-2-yl)-1H-pyrazol-4-yl]pyrimidin-2-yl}amino)propan-2-yl]carbamate]
14	CCS(=O)(=O)Nc1c(F)ccc(-c2nn(C(C)C)cc2-c2ccnc(NC[C@H](C)NC(=O)OC)n2)c1F [Compound 26, methyl N-[(2S)-1-({4-[3-(3-ethanesulfonamido-2,4-difluorophenyl)-1-(propan-2-yl)-1H-pyrazol-4-yl]pyrimidin-2-yl}amino)propan-2-yl]carbamate]
550	CC(C)n1cc(-c2ccnc(NCCN(C)C)n2)c(-c2cc(Cl)cc(NS(C)(=O)=O)c2F)n1 [Compound 28, N-{5-chloro-3-[4-(2-{[2-(dimethylamino)ethyl]amino}pyrimidin-4-yl)-1-(propan-2-yl)-1H-pyrazol-3-yl]-2-fluorophenyl}methanesulfonamide]
69	CC(C)n1cc(-c2ccnc(N)n2)c(-c2cc(Cl)cc(NS(C)(=O)=O)c2F)n1 [Compound 30, N-{3-[4-(2-aminopyrimidin-4-yl)-1-(propan-2-yl)-1H-pyrazol-3-yl]-5-chloro-2-fluorophenyl}methanesulfonamide]
180	COC(=O)N[C@@H](C)CNc1nccc(-c2c[nH]nc2-c2cc(Cl)cc(NS(C)(=O)=O)c2F)n1 [Compound 31]
7	COC(=O)N[C@@H](C)CNc1nccc(-c2cn(C3CCCCO3)nc2-c2cc(Cl)cc(NS(C)(=O)=O)c2F)n1 (stereo partly drawn) [Compound 33, Methyl N-[(2S)-1-({4-(3-(5-chloro-2-fluoro-3-methanesulfonamidophenyl)-1-(oxan-2-yl)-1H-pyrazol-4-yl]pyrimidin-2-yl}amino)propan-2-yl]carbamate]
13	CCCS(=O)(=O)Nc1c(F)ccc(-c2nn(C(C)C)cc2-c2ccnc(NC[C@H](C)NC(=O)OC)n2)c1F [Compound 34]
